ChEMBL document CHEMBL4602645, “Design, synthesis and evaluation of diosgenin carbamate derivatives as multitarget anti-Alzheimer's disease agents” (2020)
Active and inactive are the calls of the source. No cut-off for these calls is given here.

Experiments:
RAW264.7 [1] = test: Antiinflammatory activity in mouse RAW264.7 cells assessed as decrease in LPS-induced IL-6 expression by Western blot analysis; type: functional, cell-based
Mus musculus [2] = test: Neuroprotective activity in ICR mouse model of D-galactose-induced aging assessed as reduction in degeneration of neuron in hippocampal region at 6 to 30 mg/kg, ig QD measured after 8 weeks by hematoxylin-eosin staining based assay; type: functional, organism-based
RAW264.7 [3] = test: Antiinflammatory activity in mouse RAW264.7 cells assessed as decrease in LPS-induced IL-1beta expression by Western blot analysis; type: functional, cell-based
RAW264.7 [4] = test: Antiinflammatory activity in mouse RAW264.7 cells assessed as decrease in LPS-induced TNFalpha expression by Western blot analysis; type: functional, cell-based
Astrocyte = test: Neuroprotective activity against amyloid-beta42-induced cell death in astrocytes isolated from cortex of Sprague-Dawley rat assessed as decrease in cell viability at 5 to 100 uM pretreated for 2 hrs followed by amyloid-beta42 stimulation measured after 24 hrs by MTT assay; type: functional, cell-based
Mus musculus [5] = test: Neuroprotective activity in ICR mouse model of D-galactose-induced aging assessed as increase in number of […] cells at 6 to 30 mg/kg, ig QD measured after 8 weeks by hematoxylin-eosin staining based assay; type: functional, organism-based
SH-SY5Y [6] = test: Neuroprotective activity against H2O2-induced cytotoxicity in human SH-SY5Y cells assessed as cell viability at 10 uM pretreated for 2 hrs followed by H2O2 challenge and measured after 24 hrs by MTT assay relative to control; type: functional; details: read-out: Activity
SH-SY5Y [7] = test: Neuroprotective activity against H2O2-induced toxicity in human SH-SY5Y cells assessed as decrease in cell viability at 0.1 to 100 uM pretreated for 2 hrs followed by H2O2 challenge and measured after 12 hrs by MTT assay; type: functional, cell-based
SH-SY5Y [8] = test: Neuroprotective activity in human SH-SY5Y cells assessed as inhibition of H2O2-induced shortened nerve filaments at 1 to 50 uM pretreated for 2 hrs followed by H2O2 challenge and measured after 12 hrs by fluorescence microscopy analysis; type: functional, cell-based
SH-SY5Y [9] = test: Effect on mitochondrial membrane potential in human SH-SY5Y cells assessed as […] in H2O2-incuded mitochondrial membrane potential loss by measuring fluorescence shift at 5 to 50 uM pretreated for 2 hrs followed by H2O2 challenge measured after 12 hrs by fluorescence microscopy analysis; type: functional, cell-based
Mus musculus [10] = test: Antioxidant activity in ICR mouse model of D-galactose-induced aging assessed as increase in superoxide dismutase level in serum at 6 to 30 mg/kg, ig QD measured after 8 weeks; type: functional, organism-based
SH-SY5Y [11] = test: Neuroprotective activity in human SH-SY5Y cells assessed as inhibition of H2O2-induced decreased nerve filaments at 1 to 50 uM pretreated for 2 hrs followed by H2O2 challenge and measured after 12 hrs by fluorescence microscopy analysis; type: functional, cell-based
RAW264.7 [12] = test: Antiinflammatory activity in mouse RAW264.7 cells assessed as inhibition of LPS-induced nitric oxide production at 10 uM preincubated for 2 hrs followed by LPS stimulation and measured after 24 hrs by Griess assay relative to control; type: functional
Mus musculus [13] = test: Improvement in learning and spatial memory in ICR mouse model of D-galactose-induced aging assessed as effect on time spent on quadrant at 6 to 30 mg/kg, ig QD measured after 8 weeks by Morris water maze test; type: functional, organism-based
SH-SY5Y [14] = test: Effect on mitochondrial ROS generation in human SH-SY5Y cells assessed as decrease in H2O2-induced mitochondrial ROS level by measuring fluorescence intensity at 5 to 50 uM incubated for 2 hrs by DCFDA probe based fluorescence microscopy analysis; type: functional, cell-based
SH-SY5Y [15] = test: Neuroprotective activity against H2O2-induced cytotoxicity in human SH-SY5Y cells assessed as cell viability at 1 mM pretreated for 2 hrs followed by H2O2 challenge and measured after MTT assay relative to control; type: functional; details: read-out: Activity

C[C@@H]1CC[C@@]2(OC1)O[C@H]1C[C@H]3[C@@H]4CC=C5C[C@@H](OC(=O)NCc6ccccc6)CC[C@]5(C)[C@H]4CC[C@]3(C)[C@H]1[C@@H]2C
Activity (RAW264.7 [1]): Dose-dependent effect | Activity (Mus musculus [2]): Active | Activity (RAW264.7 [3]): Dose-dependent effect | Activity (RAW264.7 [4]): Dose-dependent effect | Activity (Astrocyte): Active | Activity (Mus musculus [5]): Active | viability at 10 µM (SH-SY5Y [6]): 75.3% | Activity (SH-SY5Y [7]): Active | Activity (SH-SY5Y [8]): Active | Activity (SH-SY5Y [9]): Active | Activity (Mus musculus [10]): Active | Activity (SH-SY5Y [11]): Active | inhibition at 10 µM (RAW264.7 [12]): 22.7% | Activity (Mus musculus [13]): Active | Activity (SH-SY5Y [14]): Active

CC(=O)N[C@@H](CS)C(=O)O [ACETYLCYSTEINE]
viability at 1000 µM (SH-SY5Y [15]): 37.1%
